{
  "source": "paper PMC6315541",
  "about": "“Nile Tilapia Derived Antimicrobial Peptide TP4 Exerts Antineoplastic Activity Through Microtubule Disruption” (Marine Drugs, 2018)",
  "key": {"[1]": {"test_system": "Pure tubulins (microtubule polymerization)", "test": "In vitro tubulin polymerization assay", "assay_type": "biochemical", "method": "To test the models predicted by the molecular docking analysis, TP4 mutants were generated by substitution of Phe1, Ile16, and Arg23 with either Gly or Ala (mutant names and sequences are provided in Figure 5A), and the mutants were analyzed for their interaction with α-Tubulin. The sequence of TP4 is expected to form an α-helix, see Supplementary Figure S1A.\nFigure 5 TP4 inhibits microtubule polymerization. (A) Sequences of the TP4 wild type (WT) and mutants. Letters shown in red indicate substituted amino acids. (B,C) Dynamic measurement of the microtubule polymerization. Pure tubulins were assembled in the presence of TP4 (WT), TP4 mutants (MT1-6). H2O, paclitaxel, and nocodazole served as vehicle, positive, and negative controls, respectively.\nThe Microtubule/Tubulin In Vivo Assay (Cytoskeleton, Inc., Denver, CO, USA) was performed using the “inhibitor condition” provided in the manufacturer’s instructions. Microtubule regrowth was assayed as described previously. Briefly, cells with or without 3 h, 10 μg mL^−1 TP4 treatment were incubated with nocodazole (20 μM) for 6 h at 37 °C. After washing with warm culture medium, cells were incubated for a further 0, 10, or 30 minutes. Fixed cells were stained with the α-Tubulin antibody and for F-actin. Confocal images were acquired on an FV3000 microscope (Olympus Corp., Tokyo, Japan)."}, "α-Tubulin": {"test_system": "α-Tubulin", "test": "Co-immunoprecipitation (TP4 antibody pull-down), LC-MS/MS and immunoblot", "assay_type": "binding, Homo sapiens", "conditions": "lysates of A549 cells treated with 10 μg mL^−1 TP4 for 3 h", "method": "To characterize the intracellular targets of TP4, cell lysates from A549 cells treated with 10 μg mL^−1 TP4 for 3 h were pulled down with the TP4 antibody, see Figure 1A. The dominant band was excised from the gel and analyzed by LC-MS/MS. Based on a MASCOT search for peptides found by MS, the potential binding target for TP4 was identified as α-Tubulin, see Figure 1C and Supplementary Dataset S1. […] Because tubulin is the major component of microtubules, we hypothesized that the cytotoxic effects of intracellular TP4 may be related to microtubule dynamics.\nFigure 1 TP4 interacts with α-Tubulin. (A) Procedure showing the pull down of TP4 interaction partners with TP4 antibody. […] (C) Protein database searching of peptides detected by MS identified α-Tubulin as a TP4 binding partner. α-Tubulin sequence is shown. […]\nCell lysates were prepared in immunoprecipitation (IP) detergent (50 mM Tris-HCl, pH 8.0, 150 mM NaCl, 1% Igepal CA-630: Sigma-Aldrich, St. Louis, MO, USA) with protease cocktail (Roche Applied Science, Mannheim, Germany). […] The mass spectrometry data were analyzed by Mascot engine (v.2.6.0) (Matrix Science Inc., Boston, MA, USA) to identify candidate interaction targets. […] Signals were detected by enhanced chemiluminescence (Immobilon Western Chemiluminescent HRP substrate, Merck Millipore, Billerica, MA, USA) on an imaging system (UVP, BioSpectrumTM 500, Upland, CA, USA). […]"}},
  "data": [
    {"sequence": "FIHHIIGGLFSAGKAIHRLIRRRRR [TP4, synthesized Nile tilapia-derived antimicrobial peptide, Tilapia piscidin 4]", "values": [
      {"measurement": "effect on microtubule polymerization", "setting": "[1]; 10 μg mL^−1 peptide, dynamic measurement, Figure 5B", "value": "sufficient to disrupt microtubule polymerization"},
      {"measurement": "effect on microtubule polymerization", "setting": "[1]; 20 μg mL^−1 peptide, compared to controls, Figure 5C", "value": "completely inhibited microtubule polymerization"},
      {"measurement": "interaction with α-Tubulin (IP with TP4 antibody, probed with α-Tubulin antibody)", "setting": "α-Tubulin", "value": "confirming the interaction between TP4 and α-Tubulin"}
    ]}
  ]
}
